Measured values published in US20110033944A1, “METHOD FOR MEASURING HYPOCHLORITE ION” (SEKISUI MEDICAL CO., LTD., priority 2003, published 2011).

Assays:
[1] = Reactivity of fluorescence probe to singlet oxygen (EP-1); format: physicochemical; conditions: 10 μM probe, EP-1 100 μM, pH 7.4, 37° C.
Description: (§1) In the following example, a compound wherein R^1 is 2-carboxyphenyl group, and R^2 is 4-aminophenyl group in the general formula (I) (hereinafter referred to as “APF”) and a compound wherein R^3 is 2-carboxyphenyl group, and R^4 is 4-hydroxyphenyl group in the general formula (II) (hereinafter referred to as “HPF”) were used. Each of HPF and APF is dissolved in dimethylformamide (DMF) to obtain a 10 mM solution, and then added with a 100 mM sodium phosphate buffer (pH 7.4) to obtain a final concentration of 10 μM, unless otherwise specifically mentioned.
(§2) Excitation spectra and fluorescence spectra were analyzed with Hitachi F4500. The slit width was 2.5 nm in both of the excitation spectra and fluorescence spectra. The photomultiplier voltage was 950 V. Unless otherwise specifically mentioned, excitation wavelength was 490 nm, fluorescence wavelength was 515 nm, and the measurement was performed at 37° C.
(§3) Reactivities of APF and HPF to various reactive species containing oxygen were studied. […] The measurement was performed with excitation wavelength at 500 nm and with fluorescence wavelength at 520 nm for DCFH.
A 10 μM fluorescence probe solution was put in a fluorescence cell, added with 3-(1,4-dihydro-1,4-epidioxy-1-naphthyl)propionic acid (EP-1; a final concentration of 100 μM), and was reacted for 30 minutes. […]

[2] = Reactivity of fluorescence probe to superoxide (KO2); format: physicochemical; conditions: 10 μM probe, KO2 100 μM, pH 7.4, 37° C.
Description: as §1, §2, §3
A 10 μM fluorescence probe solution was put in a fluorescence cell, added with KO2 (a final concentration of 100 μM), and was reacted for 30 minutes. Fluorescence intensities before the addition of KO2 and 30 minutes after the addition were measured.

[3] = Reactivity of fluorescence probe to hydroxyl radical (H2O2 / ferrous perchlorate); format: physicochemical; conditions: 10 μM probe, H2O2 1 mM + ferrous perchlorate 100 μM, pH 7.4, room temperature
Description: as §1, §2, §3
A 10 μM fluorescence probe solution was added with an aqueous hydrogen peroxide solution (a final concentration of 1 mM), and further slowly added with an aqueous ferrous perchlorate (a final concentration of 100 μM). […]

[4] = Reactivity of fluorescence probe to hypochlorite ion (sodium hypochlorite); format: physicochemical; conditions: 10 μM probe, sodium hypochlorite 1.0 μM, pH 7.4, 37° C.
Description: as §1, §2, §3
A 10 μM fluorescence probe solution was put in a fluorescence cell, added with an aqueous sodium hypochlorite solution (a final concentration of 1.0 μM). Fluorescence intensities before and after the addition of an aqueous sodium hypochlorite solution were measured.

[5] = Reactivity of fluorescence probe to nitric oxide (NOC13); format: physicochemical; conditions: 10 μM probe, NOC13 100 μM, pH 7.4, 37° C.
Description: as §1, §2, §3
A 10 μM fluorescence probe solution was put in a fluorescence cell, added with 1-hydroxy-2-oxo-3-(3-aminopropyl)-3-ethyl-1-triazine (NOC13; a final concentration of 100 μM), and was reacted for 30 minutes. […]

[6] = Reactivity of fluorescence probe to hydrogen peroxide; format: physicochemical; conditions: 10 μM probe, H2O2 100 μM, pH 7.4, 37° C.
Description: as §1, §2, §3
A 10 μM fluorescence probe solution was put in a fluorescence cell, added with H2O2 (a final concentration of 100 μM), and was reacted for 30 minutes. Fluorescence intensities before the addition of H2O2 and 30 minutes after the addition were measured.

neutrophils = assay: Fluorescence imaging of PMA-stimulated neutrophils; format: cell-based, porcine; conditions: 10 μM probe, PMA 2 ng/mL, excitation 488 nm, emission 505-550 nm
Description: According to the method described in Wakeyama, H., Takeshige, K., Takayanagi, R., and Minakami S. (1982) Biochem. J. 205, 593-601 and Kakinuma, K., Kaneda, M., Chiba, T., and Ohnishi, T. (1986) J. Biol. Chem. 261, 9426-9432, neutrophils were obtained from 1.8 liters of porcine blood. Erythrocytes in the buffy coat collected from the blood were hemolyzed with a large volume of an ice-cooled 0.2% aqueous sodium chloride solution for […] and then the preparation was promptly mixed with an equal volume of a 1.6% aqueous sodium chloride solution to restore the isotonic condition. Neutrophils were separated from platelets and mononuclear cells by the Conrey-Ficoll method. The neutrophils were suspended in Krebs Ringer phosphate buffer (114 mM NaCl, 4.6 mM KCl, 2.4 mM MgSO4, 1.0 mM, CaCl2, 15 mM NaH2PO4/Na2HPO4, pH7.4).
The separated neutrophils were seeded onto a glass-bottomed dish. Then the cells were loaded with HPF or APF (10 μM) after incubation for 30 minutes at room temperature. These neutrophils were stimulated with 4β-phorbol-12-myristate-13-acetate (PMA)(2 ng/mL). Fluorescence imaging was measured twice in each experiment: one is before and the other is 10 minutes after the stimulation with PMA. […]

Myeloperoxidase (human) = assay: Myeloperoxidase/H2O2 system, fluorescence measurement of generated hypochlorite ion; format: biochemical; conditions: 10 μM probe, myeloperoxidase 11.2 nM, 150 mM NaCl, 37° C.
Description: as §1, §2
(A) By using a 100 mM sodium phosphate buffer (pH 7.4) containing 150 mM sodium chloride, a 10 μM HPF solution and a 10 μM APF solution were prepared. Myeloperoxidase (human) were added to these solutions to obtain a final concentration of 11.2 nM. Each of the solution was put in each fluorescence cell, and a change in the fluorescence intensity with passage of time was measured. The temperature of the solutions were set at 37° C. […]

Q: With O=C(O)c1ccccc1C1c2cc(Cl)c(O)cc2Oc2cc(O)c(Cl)cc21 [DCFH, 2′,7′-dichlorodihydrofluorescein, reference compound] as the compound, how does the “Reactivity to singlet oxygen (fluorescence intensity before and 30 minutes after addition)” value [1] read?
A: 26

Q: What about the “Reactivity to superoxide (fluorescence intensity before and 30 minutes after addition)” value [2] of the same compound?
A: 67

Q: And the “Reactivity to hydroxyl radical (fluorescence intensity before and after addition)” value [3]?
A: 7400

Q: And the “Reactivity to hypochlorite ion (fluorescence intensity before and after addition)” value [4]?
A: 86

Q: And the “Reactivity to nitric oxide (fluorescence intensity before and 30 minutes after addition)” value [5]?
A: 150

Q: What about the “Reactivity to hydrogen peroxide (fluorescence intensity before and 30 minutes after addition)” value [6] of the same compound?
A: 190

Q: Which “Reactivity to singlet oxygen (fluorescence intensity before and 30 minutes after addition)” value [1] does the source give for Nc1ccc(Oc2ccc3c(-c4ccccc4C(=O)O)c4ccc(=O)cc-4oc3c2)cc1 [APF] here?
A: 9

Q: And the “Reactivity to superoxide (fluorescence intensity before and 30 minutes after addition)” value [2]?
A: 6

Q: And the “Fluorescence intensity of probe-loaded neutrophils before and 10 minutes after stimulation with PMA” value (neutrophils)?
A: a significant increase was observed in fluorescence intensity

Q: What about the “Change in fluorescence intensity with time on addition of hydrogen peroxide (FIG. 1(A))” value (Myeloperoxidase (human); H2O2 1 μM) of the same compound?
A: a significant increase in the fluorescence intensity was observed

Q: And the “Increase in fluorescence intensity before and after addition of hydrogen peroxide (FIG. 1(B))” value (Myeloperoxidase (human); H2O2 0.1-1.0 μM, 5 minutes)?
A: fluorescence intensity was increased in a manner dependent on the concentration of the added hydrogen peroxide

Q: And the “Reactivity to nitric oxide (fluorescence intensity before and 30 minutes after addition)” value [5]?
A: <1

Q: What about the “Reactivity to hydrogen peroxide (fluorescence intensity before and 30 minutes after addition)” value [6] of the same compound?
A: <1
